According to patent publication US20120034162A1, “Fullerene Assisted Cell Penetrating Peptides” (William March Rice University, priority 2006, published 2012):
Entries after “also recorded” stand apart in the source; their conditions may differ. Primed or numbered codes have the meaning given here. Ends that are not written are not given here. Baa″ = fullerene (C60, Bucky) amino acid derivative of phenylalanine; Baa = not defined here

What was measured:
[1] = Antioxidant properties (IC50 determined by Csixty Inc. through an established method); type: biochemical
Excerpt: A plot of inhibition as a function of concentration for peptide 27 is shown in FIG. 18 with a comparison of Baa and Trolox. […] It is unclear at the present time the reason for the slight reduction in activity between Baa and Baa-Glu-Glu-Glu-Glu-Gly-Gly-Gly-Ser-OH. Given that the peptide's aggregation in aqueous solution presumably results in the “Glu-Glu-Glu-Glu-Gly-Gly-Gly-Ser-OH” being exposed to the solution, the sequence could act as a buffer limiting electron transfer processes.

[2] = Peptide aggregation, particle size in solution by dynamic light scattering (DLS); type: physicochemical; settings: PBS buffer; for aggregate size, major (or single) component: 0.125-2.0 mg/mL
Method: (§1) Rink amide and Wang resin were obtained from Novabiochem, USA. Amino acids were purchased from Novabiochem and used as received. MALDI-TOF mass analysis was performed on a linear Protein-TOF Bruker instrument using sinipinic acid as the matrix. CD spectra were obtained on a Jasco J-700 dichrometer using 1 mm path-length quartz cells. Peptide solutions were 1.0 mg·mL^−1 solution in milliQ H2O or PBS buffer. In the case of peptides (21, 22 and 23), the pH was first adjusted to 10 to break up any aggregations and then adjusted by addition of 0.1 mM HCl until the desired pH was obtained. CD spectra were recorded in millidegrees and converted to residual molar ellipticity. TEM measurements were performed on a JEOL 2010 TEM at 200 kV. DLS Measurements were performed on the samples using an Brookhaven 90Plus submicron particle-size analyzer with HeNe laser (30 mW) that operates at […] wavelength.
With reference back to Table 1, in order to understand the intracellular transport of the FITC functionalized Baa-peptides, 25 and Baa-Lys(FITC)-NLS (26), their particle size in solution was determined by dynamic light scattering (DLS). Three series of solutions of 24, 25 and 26 in the range of 0.125-2.0 mg/mL was prepared by weighing method. PBS buffer prepared from HPLC grade water was used as solvent and was filtered through a […] cup filter (Millipore, Express).

[3] = tested on: MDA-MB neoroblastoma cells; test: Cellular proliferation, CCK-8 assay; type: cell-based; settings: 48 h
Method: (§2) Cellular proliferation studies. Cancer cells at 5×10^4 cells/well were plated in triplicate in standard flat-bottomed 96-well tissue culture plates in the presence of fullerene peptides in PBS buffer with a final volume of 100 μL. Unless otherwise indicated, cells were grown for 48 h at 37° C. in a CO2 incubator. Relative cell growth was determined by Cell Counting Kit-8 (CCK-8) cell proliferation assay as described by the manufacturer using an automated plate reader. Results were calculated in a blinded fashion and are the means of bi or triplicate determinations.
A similar comparison has been made with MDA-MB neoroblastoma cells (FIG. 25) using H-Baa-Lys(FITC)-NLS (26), Baa-Penetratin (29) and Baa-Glu-Glu-Glu-Glu-Gly-Gly-Gly-Ser-OH (27). […] Given that both H-Baa-Lys(FITC)-NLS and Baa-Penetratin are cationic peptides which are readily taken up by the cells the cell inhibition cannot be a function of the uptake (i.e., intracellular concentration), but must also be dependent on the sequence.

[4] = tested on: MCF-7 breast cancer cells; test: Cellular proliferation, CCK-8 assay; type: cell-based; settings: MCF-7, 48 h, concentration given with value
Method: as §2
The effect of different Baa-peptide sequences on the cell viability of MCF-7 breast cancer cells was investigated to determine if the sequence has an effect rather than the presence of the C60. […] This is in agreement with the MTT cell viability test (see above). […] Clearly the sequence has a significant effect on the cell viability. However, it is worth noting that this may be due to either inherent differences in toxicity or differences in cellular uptake.

[5] = Peptide secondary structure (CD) and appearance (TEM) as a function of pH; type: physicochemical; settings: for Secondary structure with decreasing pH: CD spectra; for Appearance / diameter of non-fibrous particles: TEM; for diameter of non-fibrous particles: micelles at pH 4 (21), precipitate particles at pH 6 and lower (22)
Method: as §1
Control of peptide secondary structure by fullerene amino acids. In an effort to understand the effect of the C60 substituents on the secondary structure of a peptide we have investigated two sequences and the position within a particular sequence. The well characterized model heptad peptides Glu-Ile-Ala-Gln-Leu-Glu-Tyr-Glu-Ile-Ser-Gln-Leu-Glu-Gln-NH2 (2HP, 22 in Table 1) […]NH2 (3HP, 23 in Table 1) were chosen because they are known to form fibers at pH below 7 concomitant with β-sheet formation. To investigate the effects of the presence and C60 on the conformation of the peptide the model peptide 2HP was prepared in which either tyrosine was replaced by Baa (21 in Table 1) or Baa was added to the C-terminus (22 in Table 1). The C-terminus derivative 23 was also prepared for 3HP.

IMR32 cancer cell line = test: Cellular proliferation, CCK-8 assay; type: cell-based
Method: Cellular proliferation studies. Cancer cells at 5×10^4 cells/well were plated in triplicate in standard flat-bottomed 96-well tissue culture plates in the presence of fullerene peptides in PBS buffer with a final volume of 100 μL. Unless otherwise indicated, cells were grown for 48 h at 37° C. in a CO2 incubator. Relative cell growth was determined by Cell Counting Kit-8 (CCK-8) cell proliferation assay as described by the manufacturer using an automated plate reader. Results were calculated in a blinded fashion and are the means of bi or triplicate determinations. […] This difference is possibly because the relative propensity of Baa-2HP to precipitate under acidic conditions is less than that of Baa-3HP. Thus, the formation of aggregates of Baa-3HP would cause the inhibition of cell growth. However, we cannot discount alternative factors such as the sequence and its overall charge differences. For example, the strength of the aggregate may be greater for Baa-3HP than Baa-2HP due to the stronger self-assembly forces in 3HP.

HEK-293a cells [6] = test: Cellular uptake by fluorescence microscopy; type: cell-based, human; settings: for cellular uptake / localization by fluorescence: 40 μM, 24 hrs, 37° C.; for Active Cellular Uptake: HEK-293a cells
Method: Cellular uptake. An immortalized human embryonic kidney epithelial cancer cell line was used in initial cellular uptake studies. HEK-293a cells were cultured in RMPI 1640 medium supplemented with 10% fetal bovine serum (FBS) in 5% CO2 and 37° C. humidified incubator. The medium was supplemented with penicillin (100 U·mL^−1), streptomycin (100 μg/mL), and glutamine (2 mM). For experiments and microscopy, cells were seeded at 1×10^4 cells per well on 6-well plates and grown for two days in RPMI supplemented with 10%. Cells were incubated with each peptide (40 μM) for 24 hrs at 37° C. After treatment, the cells were washed with RPMI supplemented with 10% FBS and phosphate buffered saline (PBS, 10 mM). Fluorescence was observed by a fluorescent microscope equipped with FITC and red filters.

[7] = type: in vitro ADME, bovine
Excerpt: Peptide stability. In order to test the stability of the fullerene peptide linkage, samples of Baa-Lys(FITC)-Lys8-OH and H-Baa-Lys(FITC)-NLS were exposed to bovine plasma for up to 3 days and analyzed by HPLC.

[8] = Aggregate size and morphology by cryo-TEM; type: physicochemical; settings: 1.0 mg/mL in PBS buffer, pH 7
Method: To further examine the actual aggregate size and morphology, cryo-TEM experiments were performed for both peptides 25 and 26. The images were taken in the concentration of 1.0 mg/mL for both peptides. Samples for cryo-TEM studies were prepared by dipping a copper grid coated with amorphous carbon-holey film into the sample solution. The TEM images were mainly taken in the hole region of the TEM grid to minimize the artificial effect from the samples or ice. […] Both peptides forms spherical and ellipsoidal clusters, with an average aggregate sizes of 40-80 nm for 25 and 50-150 nm for 26, which are generally smaller than the diameters observed by DLS. Consistent with the DLS study, Baa-Lys(FITC)-Lys8-OH (25) are more uniform in size than Baa-Lys(FITC)-NLS (26). FIGS. 9a and 9b show the vitreous ice cryo-TEM micrograph of the large aggregates (9a) and small aggregates (9b) formed by Baa-Lys(FITC)-Lys8-OH in PBS buffer (1 mg/mL at pH=7). There are two dominant groups in size for 25; one type has the diameter of 40-80 nm with predominant population at size of ca. 50 nm, and the other population has a diameter less than 20 nm, which may correspondent to the size of fullerene peptides itself. In contrast, the size distribution of 26 large aggregates is much polydisperse, ranging from 50-150 nm with no obvious dominant population for large aggregates, while smaller aggregates has similar size as Baa-Lys(FITC)-Lys8-OH. FIGS. 10a and 10b show the vitreous ice cryo-TEM micrograph of the large aggregates (10a) and small aggregates (10b) formed by Baa-Lys(FITC)-NLS in PBS buffer (1 mg/mL at pH=7). The aggregate sizes from the two peptides seem to be consistent with the hydrophilicity of peptide chain as more hydrophilic sequence corresponds to smaller size (25), and vice versa (26).

HEK-293a cells [9] = test: Cellular uptake by fluorescence microscopy; type: cell-based, human

Cc1c(C)c2c(c(C)c1O)CCC(C)(C(=O)O)O2 (stereo not drawn) [Trolox, reference compound]
IC50 [1]: 480 µM

Baa-(Lys)8-OH [Peptide 24]
aggregate size, major (or single) component [2]: ca. 200 nm | aggregate distribution, single broad aggregate ([2]; 0.25-2.0 mg/mL): 50-350 nm

Baa-Arg-Gln-Ile-Lys-Ile-Trp-Phe-Gln-Asn-Arg-Arg-Met-Lys-Trp-Lys-Lys-OH (Baa-RQIKIWFQNRRMKWKK-OH; reading uncertain) [Peptide 29]
inhibition of cell growth [3]: significant inhibition for solutions above 8-14 μM | inhibition of cell growth [4]: significant inhibition effect at 31.4 μM

Baa-Glu-Glu-Glu-Glu-Gly-Gly-Gly-Ser-OH ({Baa″}-EEEEGGGS-OH) [Peptide 27]
inhibition of cell growth [3]: significant inhibition for solutions above 8-14 μM | inhibition of cell growth [4]: no cellular inhibition up to 57 μM | IC50 [1]: 89 µM | antioxidant activity relative to Trolox ([1]; molar, from IC50): ca. five fold

Baa-Glu-Ile-Ala-Gln-Leu-Glu-Tyr-Glu-Ile-Ser-Gln-Leu-Glu-Gln-Glu-Ile-Gln-Ala-Leu-Glu-Ser-NH2 ({Baa″}-EIAQLEYEISQLEQEIQALES-NH2) [Peptide 23]
Secondary structure with decreasing pH [5]: α-helix coiled | Appearance [5]: fibers | inhibition of cell growth [3]: no obvious inhibition | inhibition of cell growth [4]: no obvious inhibition | inhibition of cell growth (IMR32 cancer cell line; IMR32, 100 μg·mL^−1 (29.4 μM)): significant inhibition

Baa-Glu-Ile-Ala-Gln-Leu-Glu-Tyr-Glu-Ile-Ser-Gln-Leu-Glu-Gln-NH2 ({Baa″}-EIAQLEYEISQLEQ-NH2) [Peptide 22]
Secondary structure with decreasing pH [5]: random coil → α-helix | Appearance [5]: aggregates | diameter of non-fibrous particles [5]: approximately 20 nm | inhibition of cell growth [3]: no obvious inhibition | inhibition of cell growth [4]: no obvious inhibition | inhibition of cell growth (IMR32 cancer cell line; IMR32, up to 37 μM): no inhibition

Baa-Lys(FITC)-(Lys)8-OH [Peptide 25]
cellular uptake / localization by fluorescence (HEK-293a cells [6]; listed as H-Baa-Lys(FITC)-Lys8-OH): strong green fluorescence within the cytoplasm; also recorded: accumulates in the cytoplasm | Active Cellular Uptake (HEK-293a cells [6]): Yes | aggregate size, minor smaller component [2]: ca. 10 nm | fraction of major aggregate component [2]: ca. 60% | third larger aggregate size at high concentration ([2]; 2.0 mg/mL (25), above 1.0 mg/mL (26)): ca. 1500 nm | distribution of minor smaller aggregate ([2]; 0.125-1.0 mg/mL): 5-20 nm | aggregate size, major (or single) component [2]: ca. 180 nm | degradation of the sample in bovine plasma [7]: No degradation | average aggregate size (large aggregates) [8]: 40-80 nm | diameter of small aggregate population [8]: less than 20 nm | predominant population size of large aggregates [8]: ca. 50 nm | cellular uptake at 4° C. (HEK-293a cells [9]): no cellular uptake activity

Baa-Lys(FITC)-Glu-Glu-Glu-Glu-Gly-Gly-Gly-Ser-OH ({Baa″-Lys(FITC)}-EEEEGGGS-OH) [Peptide 28]
uptake intensity in comparison with the cationic fullerene peptides (HEK-293a cells [6]; same concentration, cell line not restated): greatly reduced

Glu-Ile-Ala-Gln-Leu-Glu-Baa-Glu-Ile-Ser-Gln-Leu-Glu-Gln-NH2 [Peptide 21]
Secondary structure with decreasing pH [5]: β-sheet | Appearance [5]: fibers^a | diameter of non-fibrous particles [5]: 8-10 nm

Glu-Ile-Ala-Gln-Leu-Glu-Tyr-Glu-Ile-Ser-Gln-Leu-Glu-Gln-Gln-Glu-Ile-Gln-Ala-Leu-Glu-Ser-NH2 (EIAQLEYEISQLEQQEIQALES-NH2) [Peptide 3HP, parent model heptad peptide without Baa, reference compound]
Secondary structure with decreasing pH [5]: random coil → α-helix | Appearance [5]: fibers

Glu-Ile-Ala-Gln-Leu-Glu-Tyr-Glu-Ile-Ser-Gln-Leu-Glu-Gln-NH2 (EIAQLEYEISQLEQ-NH2) [Peptide 2HP, parent model heptad peptide without Baa, reference compound]
Secondary structure with decreasing pH [5]: random coil → α-helix → β-sheet | Appearance [5]: fibers

Lys(FITC)-(Lys)8-OH [reference compound]
cellular uptake / localization by fluorescence (HEK-293a cells [6]): no uptake | Active Cellular Uptake (HEK-293a cells [6]): No
